Source: PubChem BioAssay AID1963869 (Molecular Pharmacology Branch, DTP, NCI, 2024)

Test system: KRAS patient-derived spheroids with HUVEC/MSC, viability
Assay: Anticancer human tumor 323965-272-R-J2-PDC patient-derived pancreatic carcinoma cell line growth inhibition [KRAS2]
Details: for IC50: curve of first compound; for viability, T/C: stronger effect = lower value
Procedure, shortened: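 KRAS-mutant tumor cells were grown as spheroids with HUVEC endothelial cells and human MSCs as stroma. Targeted agents were tested alone and with KRAS pathway inhibitors. Doses started at or near clinical Cmax, or 10 microM, descending half-log.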

[1] = second compound 0.1 µM, first compound 0.01 µM
[2] = second compound 0.1 µM, first compound 0.0316 µM
[3] = second compound 0.1 µM, first compound 0.1 µM
[4] = second compound 0.316 µM, first compound 0.01 µM
[5] = second compound 0.316 µM, first compound 0.0316 µM
[6] = second compound 0.316 µM, first compound 0.1 µM
[7] = second compound 1 µM, first compound 0.01 µM
[8] = second compound 1 µM, first compound 0.0316 µM
[9] = second compound 1 µM, first compound 0.1 µM
[10] = second compound 3.16 µM, first compound 0.01 µM
[11] = second compound 3.16 µM, first compound 0.0316 µM
[12] = second compound 3.16 µM, first compound 0.1 µM
[13] = second compound 0.1 µM, first compound 0.316 µM
[14] = second compound 0.1 µM, first compound 1 µM
[15] = second compound 0.1 µM, first compound 3.16 µM
[16] = second compound 0.316 µM, first compound 0.316 µM
[17] = second compound 0.316 µM, first compound 1 µM
[18] = second compound 0.316 µM, first compound 3.16 µM
[19] = second compound 1 µM, first compound 0.316 µM
[20] = second compound 1 µM, first compound 1 µM
[21] = second compound 1 µM, first compound 3.16 µM
[22] = second compound 3.16 µM, first compound 0.316 µM
[23] = second compound 3.16 µM, first compound 1 µM
[24] = second compound 3.16 µM, first compound 3.16 µM
[25] = second compound 10 µM, first compound 0.0316 µM
[26] = second compound 10 µM, first compound 0.1 µM
[27] = second compound 10 µM, first compound 0.316 µM
[28] = second compound 10 µM, first compound 1 µM
[29] = second compound 10 µM, first compound 3.16 µM
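Further: spheroids exposed to agents for 7 days.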
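Wherever viability, T/C is given: 100% = DMSO vehicle control viability.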

In the case of `CC(C)n1nc(-c2ccc3oc(N)nc3c2)c2c(N)ncnc21` + C=CC(=O)N1CCN(c2nc(OCC3CCCN3C)nc3c2CCN(c2cccc4cccc(C)c24)C3)CC1CC#N, the IC50 (second compound 0.0316 µM) is reported as 0.596 nM, the IC50 (second compound 0.1 µM) is reported as 0.419 nM and the IC50 (second compound 0.316 µM) is reported as under 0.316 nM. It also gave an IC50 (second compound 1 µM) of under 0.316 nM, an IC50 (second compound 3.16 µM) of under 0.316 nM and a viability, T/C (second compound 0.0316 µM, first compound 0.000316 µM) of 53%. It also gave a viability, T/C (second compound 0.0316 µM, first compound 0.001 µM) of 49.6%, a viability, T/C (second compound 0.0316 µM, first compound 0.00316 µM) of 30.5% and a viability, T/C (second compound 0.0316 µM, first compound 0.01 µM) of 26%. The viability, T/C (second compound 0.0316 µM, first compound 0.0316 µM) was 17.2%, the viability, T/C (second compound 0.0316 µM, first compound 0.1 µM) was 14.5% and the viability, T/C (second compound 0.1 µM, first compound 0.000316 µM) was 52%. The viability, T/C (second compound 0.1 µM, first compound 0.001 µM) was 43.7%, the viability, T/C (second compound 0.1 µM, first compound 0.00316 µM) was 30.9% and the viability, T/C [1] was 21.1%. The viability, T/C [2] was 16.5%, the viability, T/C [3] was 13.5% and the viability, T/C (second compound 0.316 µM, first compound 0.000316 µM) was 45.9%. It also gave a viability, T/C (second compound 0.316 µM, first compound 0.001 µM) of 37.3%, a viability, T/C (second compound 0.316 µM, first compound 0.00316 µM) of 27.6% and a viability, T/C [4] of 18.7%. The viability, T/C [5] was 14.8%, the viability, T/C [6] was 12.1% and the viability, T/C (second compound 1 µM, first compound 0.000316 µM) was 49.9%. It also gave a viability, T/C (second compound 1 µM, first compound 0.001 µM) of 37.7%, a viability, T/C (second compound 1 µM, first compound 0.00316 µM) of 28.3% and a viability, T/C [7] of 17.6%. The viability, T/C [8] was 13.9%, the viability, T/C [9] was 11.1% and the viability, T/C (second compound 3.16 µM, first compound 0.000316 µM) was 28.4%. It also gave a viability, T/C (second compound 3.16 µM, first compound 0.001 µM) of 9.51%, a viability, T/C (second compound 3.16 µM, first compound 0.00316 µM) of 15.1% and a viability, T/C [10] of 2.78%. For the same compound, the viability, T/C [11] was 5.8% and the viability, T/C [12] was 4.1%.
Work on `CC(=O)OC12COC1CC(O)C1(C)C(=O)C(O)C3=C(C)C(OC(=O)C(O)C(NC(=O)OC(C)(C)C)c4ccccc4)CC(O)(C(OC(=O)c4ccccc4)C21)C3(C)C` (stereo not given) + CC1OCC2(CCN(c3cnc(Sc4ccnc(N)c4Cl)c(N)n3)CC2)C1N yielded an IC50 (second compound 0.1 µM) of under 10 nM, an IC50 (second compound 0.316 µM) of under 10 nM and an IC50 (second compound 1 µM) of under 10 nM. For the same compound, the IC50 (second compound 3.16 µM) was under 10 nM, the IC50 (second compound 10 µM) was under 10 nM and the viability, T/C [1] was 26.3%. The viability, T/C [2] was 25.6%, the viability, T/C [3] was 25.5% and the viability, T/C [13] was 21.7%. For the same compound, the viability, T/C [14] was 27%, the viability, T/C [15] was 27.7% and the viability, T/C [4] was 23.8%. It also gave a viability, T/C [5] of 23.9%, a viability, T/C [6] of 21.3% and a viability, T/C [16] of 19.8%. It also gave a viability, T/C [17] of 23%, a viability, T/C [18] of 23.5% and a viability, T/C [7] of 34.2%. It also gave a viability, T/C [8] of 33.5%, a viability, T/C [9] of 31.2% and a viability, T/C [19] of 32.4%. It also gave a viability, T/C [20] of 37.2%, a viability, T/C [21] of 39.7% and a viability, T/C [10] of 16.9%. The viability, T/C [11] was 16.3%, the viability, T/C [12] was 14.8% and the viability, T/C [22] was 14.1%. The viability, T/C [23] was 15.2%, the viability, T/C [24] was 17.2% and the viability, T/C (second compound 10 µM, first compound 0.01 µM) was 18.1%. For the same compound, the viability, T/C [25] was 16.5%, the viability, T/C [26] was 15.9% and the viability, T/C [27] was 12.3%. The viability, T/C [28] was 13.9% and the viability, T/C [29] was 16.7%.
Compound `Cn1nccc1Nc1nccc(-c2cc3c(s2)C(C)(C)N(CCN2CCOCC2)C3=O)n1` + C=CC(=O)N1CCN(c2nc(=O)n(-c3c(C)ccnc3C(C)C)c3nc(-c4c(O)cccc4F)c(F)cc23)C(C)C1 has an IC50 (second compound 0.1 µM) of 67.8 nM, an IC50 (second compound 0.316 µM) of under 31.6 nM and an IC50 (second compound 1 µM) of under 31.6 nM. The IC50 (second compound 3.16 µM) was over 10000 nM, the IC50 (second compound 10 µM) was under 31.6 nM and the viability, T/C [2] was 52%. For the same compound, the viability, T/C [3] was 49.4%, the viability, T/C [13] was 46.8% and the viability, T/C [14] was 38.2%. The viability, T/C [15] was 32.6%, the viability, T/C (second compound 0.1 µM, first compound 10 µM) was 36% and the viability, T/C [5] was 48.3%. The viability, T/C [6] was 48%, the viability, T/C [16] was 41.8% and the viability, T/C [17] was 46.1%. It also gave a viability, T/C [18] of 40%, a viability, T/C (second compound 0.316 µM, first compound 10 µM) of 42.4% and a viability, T/C [8] of 53.8%. For the same compound, the viability, T/C [9] was 50%, the viability, T/C [19] was 45.1% and the viability, T/C [20] was 43.2%. The viability, T/C [21] was 43.9%, the viability, T/C (second compound 1 µM, first compound 10 µM) was 60.7% and the viability, T/C [11] was 51.5%. It also gave a viability, T/C [12] of 53%, a viability, T/C [22] of 48% and a viability, T/C [23] of 47.6%. For the same compound, the viability, T/C [24] was 51.3%, the viability, T/C (second compound 3.16 µM, first compound 10 µM) was 71.1% and the viability, T/C [25] was 45.7%. For the same compound, the viability, T/C [26] was 45.2%, the viability, T/C [27] was 42.6% and the viability, T/C [28] was 42.5%. It also gave a viability, T/C [29] of 43.3% and a viability, T/C (second compound 10 µM, first compound 10 µM) of 53.6%.
